Reference: ChEMBL document CHEMBL1821720, “Discovery and hit-to-lead optimization of novel allosteric glucokinase activators” (Bioorg Med Chem Lett, 2011)

Legend:
[1] = biological target: T1, Hexokinase-4 (Homo sapiens) (UniProt P35557); assay: Activation of human recombinant glucokinase expressed in Escherichia coli coexpressing G6PDH at 10 uM using 5 mM glucose measured as ratio of enzyme activation in treated to untreated control by G6PDH coupled continuous spectrophotometric assay
T1 sequence (whole entry): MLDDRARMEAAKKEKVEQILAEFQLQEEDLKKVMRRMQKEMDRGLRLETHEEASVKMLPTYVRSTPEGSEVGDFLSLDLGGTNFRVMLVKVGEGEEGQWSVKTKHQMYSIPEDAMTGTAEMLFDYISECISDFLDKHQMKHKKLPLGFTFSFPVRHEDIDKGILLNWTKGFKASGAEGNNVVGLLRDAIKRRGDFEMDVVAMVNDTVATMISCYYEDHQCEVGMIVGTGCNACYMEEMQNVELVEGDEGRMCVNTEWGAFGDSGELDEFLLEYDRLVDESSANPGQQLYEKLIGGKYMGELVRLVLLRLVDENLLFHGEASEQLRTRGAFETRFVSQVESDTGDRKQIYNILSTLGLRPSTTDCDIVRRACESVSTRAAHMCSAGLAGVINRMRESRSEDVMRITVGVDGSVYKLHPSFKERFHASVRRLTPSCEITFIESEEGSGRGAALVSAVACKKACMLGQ

[2] = biological target: T1, Hexokinase-4 (Homo sapiens); assay: Activation of human recombinant glucokinase expressed in Escherichia coli coexpressing G6PDH at 10 uM using 5 mM glucose measured as ratio of enzyme activation in compound treated to Ro-28-1675 by G6PDH coupled continuous spectrophotometric assay
[3] = biological target: T1, Hexokinase-4 (Homo sapiens); assay: Activation of human recombinant glucokinase expressed in Escherichia coli coexpressing G6PDH at 10 uM using 20 mM glucose measured as ratio of enzyme activation in treated to untreated control by G6PDH coupled continuous spectrophotometric assay
[4] = biological target: T1, Hexokinase-4 (Homo sapiens); assay: Activation of human recombinant glucokinase expressed in Escherichia coli coexpressing G6PDH at 10 uM using 5 mM glucose by G6PDH coupled continuous spectrophotometric assay relative to Ro-28-1675
[5] = biological target: T1, Hexokinase-4 (Homo sapiens); assay: Activation of human recombinant glucokinase expressed in Escherichia coli coexpressing G6PDH at 10 uM using 20 mM glucose by G6PDH coupled continuous spectrophotometric assay relative to Ro-28-1675
[6] = biological target: T1, Hexokinase-4 (Homo sapiens); assay: Activation of human recombinant glucokinase expressed in Escherichia coli coexpressing G6PDH at 10 uM using 20 mM glucose measured as ratio of enzyme activation in compound treated to Ro-28-1675 by G6PDH coupled continuous spectrophotometric assay

SMILES | Ratio [1] | Ratio [2] | Ratio [3] | Activity [4] [%] | Activity [5] [%] | Ratio [6]
CC(=O)c1ccccc1-c1cc(C(=O)Nc2nc3c(s2)CCC3)c(C)s1 | 3.52 | 0.66 | 1.71 | 66 | 63 | 0.627
Cc1sc(-c2ccccc2C(N)=O)cc1C(=O)Nc1nc2c(s1)CCC2 | 3.34 | 0.714 | 1.8 | 69 |  | 0.713
CCc1sc(-c2ccccc2C(N)=O)cc1C(=O)Nc1nc2c(s1)CCC2 | 3.7 | 0.69 | 1.92 | 69 | 69 | 0.736
COC(=O)c1ccccc1-c1cc(C(=O)Nc2nc3c(s2)CCC3)c(C)o1 | 1.36 | 0.098 | 1.1 |  |  | 0.054
CC(=O)c1ccccc1-c1cc(C(=O)Nc2nc3c(s2)CCC3)co1 | 1.77 | 0.207 | 1.42 |  |  | 0.275
Cc1oc(-c2cccc(C#N)c2)cc1C(=O)Nc1nc2c(s1)CCC2 | 0.99 | -0.002 | 0.85 |  |  | -0.09
CCc1sc(-c2ccccc2S(C)(=O)=O)cc1C(=O)Nc1nc2c(s1)CCC2 | 2.76 | 0.537 | 1.41 |  |  | 0.363

Results, then the compound that gave them:

Ratio [1] | Ratio [2] | Ratio [3] | Activity [4] [%] | Activity [5] [%] | Ratio [6] | SMILES
1.88 | 0.219 | 1.42 | 20 | 20 | 0.247 | Cc1cc(C(=O)Nc2nc3c(s2)CCC3)c(C)o1
2.22 | 0.312 | 1.37 | 20 | 20 | 0.231 | Cc1cc(C(=O)Nc2nc3c(s2)CCC3)c(C)s1
1.09 | 0.021 | 1.08 |  |  | 0.053 | Cc1oc(-c2cccnc2)cc1C(=O)Nc1nc2c(s1)CCC2
1.53 | 0.127 | 1.05 |  |  | 0.028 | Cc1cc(C(=O)Nc2nc3c(s2)CCCCC3)c(C)o1
0.94 | -0.017 | 0.9 |  |  | -0.069 | Cc1oc(-c2cccc(O)c2)cc1C(=O)Nc1nc2c(s1)CCC2
1.11 | 0.022 | 1.06 |  |  | 0.036 | Cc1cc(C(=O)Nc2nc3c(s2)CCCC3)no1
1.12 | 0.032 | 1.04 |  |  | 0.027 | CNC(=O)CCc1cc(C(=O)Nc2nc3c(s2)CCC3)c(C)o1
1.98 | 0.282 | 1.51 |  |  | 0.331 | COCCCc1cc(C(=O)Nc2nc3c(s2)CCC3)c(C)o1
